The text below walks through data of BindingDB's records for doi:10.7270/Q2Q52N1X (Vanderbilt Screening Center for GPCRs, Ion Channels and …, 2009).

The structures appear in SMILES notation.

The first test addresses T1, Solute carrier family 12 member 5 (Homo sapiens, UniProt Q9H2X9).
T1 sequence (Q9H2X9 whole entry): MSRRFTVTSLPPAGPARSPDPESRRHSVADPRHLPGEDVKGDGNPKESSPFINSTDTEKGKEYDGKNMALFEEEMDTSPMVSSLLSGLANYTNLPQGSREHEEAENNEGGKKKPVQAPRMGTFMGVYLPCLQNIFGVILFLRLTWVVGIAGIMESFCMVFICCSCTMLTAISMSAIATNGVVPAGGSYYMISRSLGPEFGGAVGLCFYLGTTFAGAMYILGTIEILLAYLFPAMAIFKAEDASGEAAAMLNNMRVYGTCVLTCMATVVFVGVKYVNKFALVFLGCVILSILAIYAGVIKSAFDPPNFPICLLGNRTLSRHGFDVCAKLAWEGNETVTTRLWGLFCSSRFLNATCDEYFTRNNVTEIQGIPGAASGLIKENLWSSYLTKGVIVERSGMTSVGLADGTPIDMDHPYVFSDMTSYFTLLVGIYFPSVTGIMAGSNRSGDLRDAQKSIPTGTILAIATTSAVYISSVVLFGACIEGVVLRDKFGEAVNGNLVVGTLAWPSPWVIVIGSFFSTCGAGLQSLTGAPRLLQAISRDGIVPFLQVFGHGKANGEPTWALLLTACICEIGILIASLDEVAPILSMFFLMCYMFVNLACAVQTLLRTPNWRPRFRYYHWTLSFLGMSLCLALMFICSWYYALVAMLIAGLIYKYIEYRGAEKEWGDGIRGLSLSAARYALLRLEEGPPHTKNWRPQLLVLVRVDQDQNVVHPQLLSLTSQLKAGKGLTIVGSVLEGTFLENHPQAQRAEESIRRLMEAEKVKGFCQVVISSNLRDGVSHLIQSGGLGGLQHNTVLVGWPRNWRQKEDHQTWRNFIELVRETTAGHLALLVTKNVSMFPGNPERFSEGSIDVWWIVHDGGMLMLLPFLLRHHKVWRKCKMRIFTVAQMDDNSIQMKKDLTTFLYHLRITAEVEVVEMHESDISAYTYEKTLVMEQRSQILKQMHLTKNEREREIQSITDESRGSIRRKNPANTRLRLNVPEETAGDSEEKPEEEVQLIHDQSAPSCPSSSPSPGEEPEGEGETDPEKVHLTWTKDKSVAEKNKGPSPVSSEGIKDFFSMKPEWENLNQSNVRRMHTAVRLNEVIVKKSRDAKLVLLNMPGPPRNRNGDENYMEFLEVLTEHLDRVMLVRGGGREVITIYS
The test can be described thus: concentration-response of KCC2 transport modulators – cell-based, HEK293 KCC2, FluoZin-2 fluorescence, dose response (AID 1736).
Conditions: not given
`O=C(CSc1nnnn1-c1ccc(Cl)cc1)N1CCc2ccccc2C1` [2-[1-(4-chlorophenyl)tetrazol-5-yl]sulfanyl-1-(3,4-dihydro-1H-isoquinolin-2-yl)ethanone] yielded an EC50 of 3.26 µM.
`O=C(C1CCN(c2nnc(-n3cccc3)s2)CC1)N1CCc2ccccc2C1` [3,4-dihydro-1H-isoquinolin-2-yl-[1-(5-pyrrol-1-yl-1,3,4-thiadiazol-2-yl)-4-piperidyl]methanone] had a half-maximal effective concentration (EC50) of 10.6 µM.
The same measure, in the same setting: then `O=C(CSc1nnc(C2CC2)n1Cc1ccccc1)c1cc2ccccc2o1` [1-(1-benzofuran-2-yl)-2-[(4-benzyl-5-cyclopropyl-1,2,4-triazol-3-yl)sulfanyl]ethanone], with 5.3 µM; and `N#CC(C(=O)c1cccc(F)c1)c1nc2ccccc2s1` (stereo not given) [(2Z)-2-(3H-1,3-benzothiazol-2-ylidene)-3-(3-fluorophenyl)-3-keto-propionitrile], with 9.66 µM.
Regarding `CC(NC(=O)CCc1nnc(-c2ccc(-c3ccccc3)cc2)o1)c1nccs1` (stereo not given) [3-(5-biphenyl-4-yl-1,3,4-oxadiazol-2-yl)-N-[1-(1,3-thiazol-2-yl)ethyl]propanamide], the midpoint of the response, the EC50, lay at 4.79 µM.
For `Cc1ccc(NC(=O)CCCSc2ccccc2)cc1S(=O)(=O)N1CCOCC1` [MLS000761060], the EC50 was 408 µM.
Compound `CCC(Sc1nc(C)cc(=O)[nH]1)C(=O)Nc1sc2c(c1C#N)CCCC2` (stereo not given) [MLS000112919] yielded an EC50 of 25.6 µM.
In turn, `COc1ccc(C(=O)N2CCCC(c3ccccc3)C2)cc1` (stereo not given) [(4-methoxyphenyl)-(3-phenyl-1-piperidinyl)methanone] showed an EC50 of 110 µM.
As to `Cc1noc(C)c1S(=O)(=O)N1CCC(C(=O)N2CCN(c3ccc(F)cc3)CC2)CC1` [1-({1-[(3,5-dimethylisoxazol-4-yl)sulfonyl]piperidin-4-yl}carbonyl)-4-(4-fluorophenyl)piperazine], the EC50 worked out at 7.58 µM. This EC50 lies about 15-fold lower than the previous one.
In the case of `Cc1ccc2[nH]c(=O)c(CN(CCc3ccccc3)Cc3nnnn3CC3CCCO3)cc2c1` (stereo not given) [SMR000003177], a half-maximal effect (EC50) was put at 244 µM.
`O=C(NCCCCc1ccccc1)C1CC(c2ccccc2[N+](=O)[O-])=NO1` (stereo not given) [3-(2-nitrophenyl)-N-(4-phenylbutyl)-2-isoxazoline-5-carboxamide] showed an EC50 of 8.63 µM.
Take `O=C(Nc1cccnc1)c1ccc(COc2cc(Cl)ccc2Cl)o1` [5-[(2,5-dichlorophenoxy)methyl]-N-(3-pyridinyl)-2-furancarboxamide]: it took 106 µM to reach a half-maximal effect (EC50).
`Cc1n[nH]c(O)c1C(c1ccc(-c2ccc(F)cc2)o1)c1c(C)n[nH]c1O` [4-[[5-(4-fluorophenyl)furan-2-yl]-(3-methyl-5-oxo-1,2-dihydropyrazol-4-yl)methyl]-5-methyl-1,2-dihydropyrazol-3-one] yielded an EC50 of 14.3 µM.
`Cc1ccc(C)c(C(=O)NC(C)CCc2ccccc2)c1` (stereo not given) [2,5-dimethyl-N-(1-methyl-3-phenyl-propyl)benzamide] gave an EC50 of 3.82 µM.
For the compound `CCn1nnnc1SCC(=O)Nc1nc(-c2cccs2)cs1` [2-(1-Ethyl-1H-tetrazol-5-ylsulfanyl)-N-(4-thiophen-2-yl-thiazol-2-yl)-acetamide], the EC50 came out at 1.97 µM.
The same measure, in the same setting: then `O=C(NCCOc1ccccc1F)c1ccccc1SCc1ccc(F)cc1` [2-[(4-fluorobenzyl)thio]-N-[2-(2-fluorophenoxy)ethyl]benzamide], with 0.313 µM; and `CC(=O)NC(C)C(=O)OCC(=O)c1ccc(-c2ccccc2)cc1` (stereo not given) [2-acetamidopropanoic acid [2-oxo-2-(4-phenylphenyl)ethyl] ester], with 7.92 µM.
For the compound `CCOC(=O)c1cc2c(ccn2C)n1CC(=O)N1CCC(Cc2ccccc2)CC1` [1-[2-(4-Benzyl-piperidin-1-yl)-2-oxo-ethyl]-4-methyl-1,4-dihydro-pyrrolo[3,2-b]pyrrole-2-carboxylic acid ethyl ester], a half-maximal effect (EC50) was put at 7.58 µM.
The same measure, in the same setting: as for `O=C(NCc1cccnc1)c1ccc(COc2ccc(Cl)cc2Cl)o1` [5-[(2,4-dichlorophenoxy)methyl]-N-(3-pyridinylmethyl)-2-furancarboxamide], the figure is 2060 µM; as for `CC(C)(C)NC(=O)C(c1cccs1)N(CC1CCCO1)C(=O)c1ccc(-c2ccccc2)[nH]1` (stereo not given) [N-[2-(tert-butylamino)-2-oxo-1-thiophen-2-ylethyl]-N-(2-oxolanylmethyl)-5-phenyl-1H-pyrrole-2-carboxamide], 1.93 µM; as for `O=C(CNC(=O)/C(=C\c1ccc(Br)cc1)NC(=O)c1ccccc1)OCc1ccccc1` [(phenylmethyl) 2-[[(E)-2-benzamido-3-(4-bromophenyl)prop-2-enoyl]amino]ethanoate], 1.2 µM.
`COC(=O)c1sccc1NC(=S)OC` [3-(methoxycarbothioylamino)thiophene-2-carboxylic acid methyl ester] yielded an EC50 of 3.94 µM.
On to `O=C(Cn1nnc2c(cnn2-c2ccccc2)c1=O)N1CCN(c2ccccc2F)CC1` [3-[2-[4-(2-fluorophenyl)-1-piperazinyl]-2-oxoethyl]-7-phenyl-4-pyrazolo[3,4-d]triazinone], for which the EC50 was found to be 15.6 µM. This EC50 is about 4-fold higher than that of the compound before.
In turn, `CC1CCN(C(=O)CSc2ccc(-c3ccc(F)cc3)nn2)CC1` [2-[6-(4-Fluoro-phenyl)-pyridazin-3-ylsulfanyl]-1-(4-methyl-piperidin-1-yl)-ethanone] registered an EC50 of 3.08 µM.
`CN1/C(=C\C(=S)NC(=O)c2cccc(Br)c2)C(C)(C)c2ccccc21` [SMR000254682] showed an EC50 of 3.68 µM.
`CC1Cc2ccccc2N1C(=O)CSc1nnnn1Cc1ccccc1` (stereo not given) [1-(2-methyl-2,3-dihydroindol-1-yl)-2-[[1-(phenylmethyl)-1,2,3,4-tetrazol-5-yl]sulfanyl]ethanone] registered an EC50 of 1.91 µM.
`Cc1ccc(C(=O)CC=Nc2ccccc2C(N)=O)cc1` [2-[[(E)-3-(4-methylphenyl)-3-oxidanylidene-prop-1-enyl]amino]benzamide]: the EC50 was 7.95 µM.
With `Cc1nc2cc(C(F)(F)F)ccc2n1C1CCN(Cc2nnnn2Cc2ccc3c(c2)OCO3)CC1` [1-[1-(1-Benzo[1,3]dioxol-5-ylmethyl-1H-tetrazol-5-ylmethyl)-piperidin-4-yl]-2-methyl-5-trifluoromethyl-1H-benzoimidazole], the EC50 was found to be 16.4 µM. This EC50 is about 2.1-fold higher than that of the compound before.
`Cc1ccc(S(=O)(=O)N2CCC(=O)N(C(COCc3ccccc3)Cc3ccccc3)CC2)cc1` (stereo not given) [1-(4-methylphenyl)sulfonyl-4-(1-phenyl-3-phenylmethoxy-propan-2-yl)-1,4-diazepan-5-one] came in with an EC50 of 1.17 µM. Against the preceding compound, the EC50 is about 14-fold lower.
`COc1ccc(-c2cc(CCCC(=O)NCCc3ccccc3)no2)cc1` [4-[5-(4-methoxyphenyl)-1,2-oxazol-3-yl]-N-(2-phenylethyl)butanamide] came in with an EC50 of 1.84 µM.
`O=C(O)CC/C(=C\c1ccc(N2CCOCC2)c([N+](=O)[O-])c1)c1nc2ccccc2s1` [(E)-4-(1,3-benzothiazol-2-yl)-5-(4-morpholin-4-yl-3-nitro-phenyl)pent-4-enoic acid] came in with an EC50 of 82100 µM.
In turn, `O=C(NC(=S)NNC(=O)c1cnccn1)c1ccc(Cl)cc1` [4-Chloro-N-[N'-(pyrazine-2-carbonyl)-hydrazinocarbothioyl]-benzamide] yielded an EC50 of 13 µM.
With `Cc1nn2c(nc(O)c3ccccc32)c1C=O` [MLS000565386], the EC50 amounted to 40.9 µM.
Compound `O=C(Cn1c(-c2ccc(Cl)cc2)noc1=O)N1CCN(c2ccccc2F)CC1` [3-(4-Chloro-phenyl)-4-{2-[4-(2-fluoro-phenyl)-piperazin-1-yl]-2-oxo-ethyl}-4H-[1,2,4]oxadiazol-5-one] registered an EC50 of 6.07 µM.
For `Cc1csc(NC(=O)CSc2ccc(-c3ccccc3)nn2)n1` [N-(4-methyl-1,3-thiazol-2-yl)-2-(6-phenylpyridazin-3-yl)sulfanyl-ethanamide], a half-maximal effect (EC50) was put at 0.493 µM.

The test is the same for the next values; noted with them: inactive by the depositor's call.
`O=C(NCCSCc1ccccc1)c1cc(S(=O)(=O)N2CCOCC2)ccc1F` [2-fluoranyl-5-morpholin-4-ylsulfonyl-N-[2-(phenylmethylsulfanyl)ethyl]benzamide] displayed an EC50 of 24.7 µM.
`Cc1nnc(NC(=O)c2ccc3ccccc3c2)o1` [MLS000056450] showed an EC50 of 85.7 µM.
`Cc1cccc(N2CCN(C(=O)Cn3ccc4ccccc4c3=O)CC2)c1C` [2-[2-[4-(2,3-dimethylphenyl)-1-piperazinyl]-2-oxoethyl]-1-isoquinolinone]: the EC50 is 260 µM.
As for `O=[N+]([O-])c1ccc(NC2CCN(Cc3ccccc3)CC2)c([N+](=O)[O-])c1` [(1-benzyl-4-piperidyl)-(2,4-dinitrophenyl)amine], the EC50 stood at 5.49 µM.
For the compound `CSc1ccc(NC(=O)NCCN2CCc3ccccc3C2)cc1` [1-[2-(3,4-dihydro-1H-isoquinolin-2-yl)ethyl]-3-(4-methylsulfanylphenyl)urea], the EC50 turned out to be 21.5 µM.

By EC50 is commonly meant the concentration giving half of the maximal effect.
